Measurements as given in patent publication US20040224884A1, “Methods of screening for apoptosis-controlling agents for bone anabolic therapies and uses thereof” (priority 1998, published 2004).

Columns and labels:
[1] = tested on: extracellular signal regulated kinases (ERKs) 1 and 2; assay: Western blot of phosphorylated ERK1/2 in MLO-Y4 cells; assay type: cell-based, murine
Procedure: (§1) MLO-Y4 osteocytic cells were incubated for 25 minutes in serum -free medium. […] Cell lysates were prepared and proteins were separated by electrophoresis in polyacrylamide gels and transferred to PVDF membranes. Western blotting was performed using a specific antibody recognizing phosphorylated ERKs 1 and 2, followed by reblotting with an antibody recognizing total ERKs. Blots were developed by enhanced chemiluminescence.
as §1, with “MLO-Y4” for “MLO-Y4 osteocytic”, “serum-free medium in the presence or absence of 50 μM PD98059.” for “serum -free medium.”
as §1, with “In this experiment, MLO-Y4” for “MLO-Y4”, “serum-free” for “serum -free”, “extracellular signal regulated kinases” for “ERKs”, “extracellular signal regulated kinases.” for “ERKs.”, “chemiluminescence. […] This effect is too rapid to be accounted for by the classical mechanism of estrogen action.” for “chemiluminescence.”
as §1, with “In this experiment, MLO-Y4” for “MLO-Y4”, “serum-free medium in the presence or absence of 50 μM PD98059.” for “serum -free medium.”, “extracellular signal regulated kinases” for “ERKs”, “extracellular signal regulated kinases.” for “ERKs.”

[2] = biological target: T1, murine estrogen receptor-alpha (mERα) (Mus musculus, UniProt P19785); assay: Etoposide-induced apoptosis in HeLa cells stably transfected with mERα; assay type: cell-based, human; conditions: 10^−8 M, 1 h; etoposide 5×10^−5 M, 6 hour
T1 construct: expressed in transfected cells
T1 sequence (P19785 1-599): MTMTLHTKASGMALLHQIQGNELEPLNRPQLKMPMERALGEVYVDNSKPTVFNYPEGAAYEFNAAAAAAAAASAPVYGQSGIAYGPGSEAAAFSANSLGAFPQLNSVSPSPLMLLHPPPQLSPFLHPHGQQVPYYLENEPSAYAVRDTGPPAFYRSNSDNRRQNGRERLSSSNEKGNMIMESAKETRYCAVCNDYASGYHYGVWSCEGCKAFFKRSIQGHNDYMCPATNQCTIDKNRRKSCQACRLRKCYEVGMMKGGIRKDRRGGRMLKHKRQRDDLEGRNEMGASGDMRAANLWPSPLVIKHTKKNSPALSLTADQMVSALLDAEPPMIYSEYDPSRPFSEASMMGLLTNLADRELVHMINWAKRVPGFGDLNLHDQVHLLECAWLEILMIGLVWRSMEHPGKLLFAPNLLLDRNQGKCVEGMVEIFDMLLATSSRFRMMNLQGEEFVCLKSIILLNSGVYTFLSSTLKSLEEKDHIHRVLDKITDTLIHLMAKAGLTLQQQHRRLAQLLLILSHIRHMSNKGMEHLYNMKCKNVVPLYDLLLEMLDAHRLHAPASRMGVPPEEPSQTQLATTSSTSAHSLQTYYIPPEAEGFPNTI
Text: (§2) CMV promoter alone and CMV promoter-driven cDNA for mERα or mErβ were stably transfected into HeLa cells. […] Cells were trypsinized, pelleted and trypan blue positive cells enumerated.
(§3) In this experiment, instead of calvaria cells, human HeLa cells which contain undetectable, if any, estrogen receptor were used. HeLa cells were stably transfected with either a CMV promoter-driven cDNA for the murine estrogen receptor-alpha (mERα) or a CMV promoter-driven cDNA for the murine estrogen receptor-beta (mERβ). […] Cells were trypsinized, pelleted and trypan blue positive cells were enumerated.

[3] = tested on: MLO-Y4 osteocytic cells; assay: Etoposide-induced apoptosis of MLO-Y4 osteocytic cells, trypan blue uptake; assay type: cell-based, murine
Procedure: Cells were pretreated with the indicated concentrations of the compounds for 1 hour before the addition of the pro-apoptotic agent etoposide. Apoptosis was determined after 6 hour by trypan blue uptake as described in FIG. 3. * indicates p<0.05 versus etoposide alone, by ANOVA (Student-Newman-Keuls method).
(§4) MLO-Y4 cells were pretreated for 1 hour with the pure receptor antagonist ICI182,780 (10^−7 M) before the addition of the test agents (10^−8 M). Apoptosis was induced and quantified as described in FIG. 3. * indicates p<0.05 versus etoposide alone, by ANOVA (Student-Newman-Keuls method).
In this experiment, MLO-Y4 cells were pretreated with the indicated concentrations of the various compounds for 1 h before the addition of the pro-apoptotic agent, etoposide. Apoptosis was determined after 6 h by trypan blue uptake as described in FIG. 3.

[4] = biological target: T2, murine estrogen receptor-beta (mERβ) (Mus musculus, UniProt O08537); assay: Etoposide-induced apoptosis in HeLa cells stably transfected with mERβ; assay type: cell-based, human; conditions: 10^−8 M, 1 h; etoposide 5×10^−5 M, 6 hour
T2 construct: expressed in transfected cells
T2 sequence (O08537 whole entry): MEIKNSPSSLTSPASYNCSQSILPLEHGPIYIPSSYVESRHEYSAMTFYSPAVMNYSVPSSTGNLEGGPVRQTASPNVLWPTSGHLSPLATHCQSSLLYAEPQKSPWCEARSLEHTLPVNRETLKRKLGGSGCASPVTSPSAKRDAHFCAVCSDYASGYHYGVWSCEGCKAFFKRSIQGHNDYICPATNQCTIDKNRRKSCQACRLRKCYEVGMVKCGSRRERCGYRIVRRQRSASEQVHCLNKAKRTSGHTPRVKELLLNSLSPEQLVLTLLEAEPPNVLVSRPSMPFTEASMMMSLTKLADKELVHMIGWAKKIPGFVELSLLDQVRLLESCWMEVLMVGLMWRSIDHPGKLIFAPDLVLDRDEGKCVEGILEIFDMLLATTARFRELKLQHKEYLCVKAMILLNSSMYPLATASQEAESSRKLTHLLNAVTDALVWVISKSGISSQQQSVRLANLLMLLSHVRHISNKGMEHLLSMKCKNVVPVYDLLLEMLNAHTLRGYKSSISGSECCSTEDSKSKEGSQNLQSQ
Text: as §2, §3

[5] = tested on: osteoblastic cells derived from murine calvaria; assay: Etoposide-induced apoptosis of osteoblastic cells, trypan blue uptake; assay type: cell-based
Procedure: Osteoblastic cells derived from murine calvaria were pretreated with the sterols for 1 hour before the addition of the pro-apoptotic agent, etoposide. Apoptosis was determined after 6 hours by trypan blue uptake (Jilka et al, J. Bone and Min. Res. 13:793:802, 1998). * indicates p<0.05 versus etoposide alone, by analysis of variance (ANOVA) (Student-Newman-Keuls method).
as §4, with “Osteoblastic” for “MLO-Y4”, “cells derived from murine calvaria” for “cells”
In this experiment, osteoblastic cells were derived from murine calvaria and were pretreated with the sterols for 1 hour before the addition of the pro-apoptotic agent, etoposide.
In these experiments, cells were pretreated with the indicated concentrations of the various compounds for 1 hour, in the absence or presence of the androgen receptor antagonist flutamide, before the addition of the proapoptotic agent etoposide. Apoptosis was determined after 6 hours by trypan blue uptake as described in FIG. 3.

## C[C@@]12CCC[C@H]1[C@@H]1CCc3cc(O)ccc3[C@H]1CC2 [estratriene-3-ol]
[1]; 10^−8 M, 5, 15 or 30 minutes
  activation (phosphorylation) of ERKs: activated
[1]; 10^−8 M, 5 minutes, 50 μM PD98059
  ability to activate ERKs in the presence of PD98059: abrogated
[2]
  inhibition of etoposide-induced apoptosis in HeLa cells transfected with estrogen receptor α: potently inhibited
[3]; ICI182,780 10^−7 M, 1 h pretreatment
  antiapoptotic effect on osteocytes after pretreatment with ICI182,780: abrogated
[3]; MLO-Y4, pretreated 1 h before etoposide, apoptosis after 6 h
  inhibition of etoposide-induced apoptosis of osteocytic cell line: dose-dependently inhibited
[4]
  inhibition of etoposide-induced apoptosis in HeLa cells transfected with estrogen receptor β: potently inhibited
[5]
  potency in inhibiting apoptosis relative to 17β estradiol: as potent a s 17β estradiol
[5]; pretreated 1 hour before etoposide, apoptosis after 6 hours by trypan blue uptake
  inhibition of etoposide-induced osteoblastic cell apoptosis: inhibition of etoposide-induced osteoblastic cell apoptosis was demonstrated
[5]; test agent 10^−8 M, ICI182,780 10^−7 M, 1 h pretreatment
  anti-apoptotic effect on osteoblastic cells after pretreatment with ICI182,780: abrogated
